Experiments:
[1] = system: bacteria endogenous to the city water system (biofilm on glass beads); test: Biofilm-contaminated glass beads column: organisms released in effluent; type: cell-based; parameters: key: −: No significant reduction in number of organisms.; +/−: A small or transient reduction in number of organisms.; +: A significant reduction in number of organisms.; +++: A reduction to below 10 organisms per ml effluent; settings: hydrogen peroxide 3% v/v, NaHSO4 0.06% w/v, thymol >0.1% w/v, iron chip, treated four days, 12 h static
Description: The beads were first contaminated with bacteria endogenous to the city water system for five days.
0.06% w/v; and thymol, >0.1% w/v. Additionally, an iron chip was added to the Biocidal Complex.
Glass beads with an established biofilm were treated, and samples collected and analyzed, as described above.

[2] = system: Escherichia coli on chicken skin; test: MIC on inoculated chicken skin, E. coli; type: cell-based, Escherichia coli B; settings: single agent; chicken skin immersed 10 min at 20° C.; concentration reducing final count below 17.5 cfu/cm^2
Description: To test the effectiveness of Biocidal Complex on other surfaces, a 5.7 cm^2 piece of chicken leg skin was placed in a holder made from a bottomless 50 ml centrifuge tube with a cap to support the skin test strip. Each skin sample was initially immersed in water. […] The bacteria were counted as described below. This value served as the control. The skin was then exposed to germicidal ultraviolet light for 5 min to sanitize the skin prior to inoculation. The sanitized skin was inoculated with 1 ml of a cell suspension containing 10^8 cfu/ml of either Salmonella typhimurium or Escherichia coli B and incubated for 30 min at 37° C. and 32° C., respectively. The inoculated skin samples were immersed in Biocidal Complex or in other combinations of ingredients at 20° C. for 10 min. […] The cotton swabs from both the control and treated skin were vortex-mixed for 1 min in a 0.1% peptone solution (pH 7.2). Then 0.5 ml of peptone solution was plated on MacConkey agar (Difco Laboratory, Detroit, Michigan). The plates were incubated for 24 hr at either 37° C. or 32° C. before counting the colonies. Microbial counts were expressed as cfu/cm^2, based on a total skin sample area of 5.7 cm^2. An initial level of contamination before treatment with Biocidal Complex (or water) was assessed for each sample. […] Initial contamination level of the inoculated skin after 30 min incubation time and immediately prior to treatment was 140,000 cfu/cm^2.

[3] = system: Salmonella typhimurium on chicken skin; test: MIC on inoculated chicken skin, S. typhimurium; type: cell-based; settings: single agent; chicken skin immersed 10 min at 20° C.; concentration reducing final count below 17.5 cfu/cm^2
Description: To test the effectiveness of Biocidal Complex on other surfaces, a 5.7 cm^2 piece of chicken leg skin was placed in a holder made from a bottomless 50 ml centrifuge tube with a cap to support the skin test strip. Each skin sample was initially immersed in water. […] The bacteria were counted as described below. This value served as the control. The skin was then exposed to germicidal ultraviolet light for 5 min to sanitize the skin prior to inoculation. The sanitized skin was inoculated with 1 ml of a cell suspension containing 10^8 cfu/ml of either Salmonella typhimurium or Escherichia coli B and incubated for 30 min at 37° C. and 32° C., respectively. The inoculated skin samples were immersed in Biocidal Complex or in other combinations of ingredients at 20° C. for 10 min. […] The cotton swabs from both the control and treated skin were vortex-mixed for 1 min in a 0.1% peptone solution (pH 7.2). Then 0.5 ml of peptone solution was plated on MacConkey agar (Difco Laboratory, Detroit, Michigan). The plates were incubated for 24 hr at either 37° C. or 32° C. before counting the colonies. Microbial counts were expressed as cfu/cm^2, based on a total skin sample area of 5.7 cm^2. An initial level of contamination before treatment with Biocidal Complex (or water) was assessed for each sample. […] Contamination level of the inoculated skin after 30 min incubation time and immediately before treatment was 3,500,000 cfu/cm^2. The water-washed control skin ha 1,750 cfu/cm^2.

[4] = system: Escherichia coli in broth culture; test: MIC in broth culture, E. coli; type: cell-based, Escherichia coli B; settings: single agent; nutrient broth, 24 hours at 32° C.; no detectable growth
Description: (§1) Nutrient broth was mixed with the complete Biocidal Complex or with combinations of ingredients, and then serially diluted two-fold in stages. Various combinations of biocidal ingredients and broth were inoculated with 0.1 ml of either Salmonella typhimurium or Escherichia coli B to give a microbial count of about 10^7 cfu/ml. Inoculated broth was then incubated for 24 hours at 37° C. for S. typhimurium, or at 32° C. for E. coli.

[5] = system: Salmonella typhimurium in broth culture; test: MIC in broth culture, S. typhimurium; type: cell-based; settings: single agent; nutrient broth, 24 hours at 37° C.; no detectable growth
Description: as §1

| Structure (SMILES) | Effect: qualitative changes in number of organisms released from established biofilms [1] | MIC (%) [2] | MIC (%) [3] | MIC (%) [4] | MIC (%) [5] |
| --- | --- | --- | --- | --- | --- |
| OO [H2O2, hydrogen peroxide] | − | 4.0% | 7.0% | 0.006% | 0.012% |
| OCl [Sodium Hypochlorite, sodium hypochlorite, reference compound] |  | 1.0% | 1.0% | 0.013% | 0.025% |
| Cc1ccc(C(C)C)c(O)c1 [Thymol, thymol] | +/− | >0.1% | >0.1% | 0.02% | 0.04% |
